US20140357713A1, “ANTIMICROBIAL COMPOUNDS AND METHODS OF USE” (NexMed Holdings, Inc., priority 2012, published 2014)
Where two headings read alike, the source gives them in different places.

Legend:
Assay in all cases: MIC assay with different strains, Example 35
Format in all cases: cell-based
[1] = system: Streptococcus pneumonia (ATCC 6303)
Procedure: (§1) The minimum inhibitory concentration (MIC) is used to determine the lowest concentration of a test product claiming antimicrobial effects that will inhibit growth of a microorganism. Each microbial suspension was adjusted approximately 10^7 to 10^8 colony forming units (CFU) per mL and labeled as the stock suspension. The stock suspension was further diluted to 1:200 in Mueller Hinton broth to obtain a test sample having a concentration of […]. The test sample was then tested for MIC as described in M202.R02. After incubation, each tube was examined for turbidity, which indicated growth or no growth. For the tubes where the product rendered the media turbid, an aliquot of the media was streaked onto agar plates to confirm growth or lack of growth.

[2] = system: Enterococcus faecalis (ATCC 51299)
Procedure: as §1

[3] = system: Acinetobacter baumannii (ATCC 19606)
Procedure: as §1

[4] = system: Enterobacter cloacae (ATCC 13047)
Procedure: as §1

[5] = system: Proteus mirabilis (ATCC 7002)
Procedure: as §1

[6] = system: Staphylococcus haemolyticus (ATCC 29970)
Procedure: as §1

[7] = system: Serratia marcescens (ATCC 14756)
Procedure: as §1

[8] = system: Staphylococcus saprophyticus (ATCC 15305)
Procedure: as §1

CCCCCCCCCCCCOC(=O)C(C)NC.Cl (stereo not shown) [Nex-59, Dodecyl 2-(methylamino)propanoate hydrochloride]
MIC ([1]; Example 35): 0.32% | Growth/no growth ([1]; Sample Concentration 0.01%): Growth | Growth/no growth ([1]; Sample Concentration 0.02%): Growth | Growth/no growth ([1]; Sample Concentration 0.04%): Growth | Growth/no growth ([1]; Sample Concentration 0.08%): Growth | Growth/no growth ([1]; Sample Concentration 0.16%): Growth | MIC ([1]; Streptococcus pneumoniae, ATCC6303, Table 19 summary, read-out: MIC): 3200 µg/mL | MIC ([2]; Enterococcus faecalis, ATCC51299, Table 19 summary, read-out: MIC): 400 µg/mL | MIC ([2]; Example 35): 0.04% | Growth/no growth ([2]; Sample Concentration 0.01%): Growth | Growth/no growth ([2]; Sample Concentration 0.02%): Growth | Growth/no growth ([2]; Sample Concentration 0.04%): No | Growth/no growth ([2]; Sample Concentration 0.08%): No | Growth/no growth ([2]; Sample Concentration 0.16%): No | Growth/no growth ([2]; Sample Concentration 0.32%): No | Growth/no growth ([2]; Sample Concentration 0.63%): No | Growth/no growth ([2]; Sample Concentration 1.25%): No | Growth/no growth ([2]; Sample Concentration 2.5%): No | MIC ([3]; Acinetobacter baumannii, ATCC19606, Table 19 summary, read-out: MIC): 800 µg/mL | MIC ([3]; Example 35): 0.08% | Growth/no growth ([3]; Sample Concentration 0.01%): Growth | Growth/no growth ([3]; Sample Concentration 0.02%): Growth | Growth/no growth ([3]; Sample Concentration 0.04%): Growth | MIC ([4]; Enterobacter cloacae, ATCC13047, Table 19 summary, read-out: MIC): 1600 µg/mL | MIC ([4]; Example 35): 0.16% | Growth/no growth ([4]; Sample Concentration 0.01%): Growth | Growth/no growth ([4]; Sample Concentration 0.02%): Growth | Growth/no growth ([4]; Sample Concentration 0.04%): Growth | Growth/no growth ([4]; Sample Concentration 0.08%): Growth | MIC ([5]; Example 35): 0.32% | MIC ([5]; Proteus mirabilis, ATCC7002, Table 19 summary, read-out: MIC): 3200 µg/mL | Growth/no growth ([5]; Sample Concentration 0.01%): Growth | Growth/no growth ([5]; Sample Concentration 0.02%): Growth | Growth/no growth ([5]; Sample Concentration 0.04%): Growth | Growth/no growth ([5]; Sample Concentration 0.08%): Growth | Growth/no growth ([5]; Sample Concentration 0.16%): Growth | MIC ([6]; Example 35): 0.02% | Growth/no growth ([6]; Sample Concentration 0.01%): Growth | Growth/no growth ([6]; Sample Concentration 0.02%): No | Growth/no growth ([6]; Sample Concentration 0.04%): No | Growth/no growth ([6]; Sample Concentration 0.08%): No | Growth/no growth ([6]; Sample Concentration 0.16%): No | Growth/no growth ([6]; Sample Concentration 0.32%): No | Growth/no growth ([6]; Sample Concentration 0.63%): No | Growth/no growth ([6]; Sample Concentration 1.25%): No | Growth/no growth ([6]; Sample Concentration 2.5%): No | MIC ([6]; Staphylococcus haemolyticus, ATCC29970, Table 19 summary, read-out: MIC): 200 µg/mL | MIC ([7]; Example 35): >2.5% | Growth/no growth ([7]; Sample Concentration 0.01%): Growth | Growth/no growth ([7]; Sample Concentration 0.02%): Growth | Growth/no growth ([7]; Sample Concentration 0.04%): Growth | Growth/no growth ([7]; Sample Concentration 0.08%): Growth | Growth/no growth ([7]; Sample Concentration 0.16%): Growth | Growth/no growth ([7]; Sample Concentration 0.32%): Growth | Growth/no growth ([7]; Sample Concentration 0.63%): Growth | Growth/no growth ([7]; Sample Concentration 1.25%): Growth | Growth/no growth ([7]; Sample Concentration 2.5%): Growth | MIC ([7]; Serratia marcescens, ATCC14756, Table 19 summary, read-out: MIC): > 25000 µg/mL | MIC ([8]; Example 35): 0.02% | Growth/no growth ([8]; Sample Concentration 0.01%): Growth | Growth/no growth ([8]; Sample Concentration 0.02%): No | Growth/no growth ([8]; Sample Concentration 0.04%): No | Growth/no growth ([8]; Sample Concentration 0.08%): No | Growth/no growth ([8]; Sample Concentration 0.16%): No
